Measurements from PubChem BioAssay AID686955 (ICCB-Longwood Screening Facility, Harvard Medical School, 2013).
The source made the active and inactive calls.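 The calls were made as follows: active = compounds that shift the dex/IL-1 ratio, either lowering it activators or doubling it inhibitors, at 1 µM (some results past the limit were not filed as active); inactive = the rest.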

Tested on: NF-kB luciferase reporter cells, IL-1b + dexamethasone, 18 h
Assay: GR-specific modulators of NF-kB trans-repression, confirmation, cell-based, luciferase, IL-1B plus dexamethasone (AID 686955)
Conditions: for assay II/I ratio: 4 uM; for normalized assay II/I ratio: at 1 µM

With `Cn1cc(C2=C(c3cccc(OCC(O)CO)c3)C(=O)NC2=O)c2ccccc21` (stereo unspecified) the assay II/I ratio (dexamethasone conc 1) was 0.553, the assay II/I ratio (dexamethasone conc 2) was 0.398 and the normalized assay II/I ratio was 1.68 (inactive). It also gave a normalized assay II/I ratio (dexamethasone concentration 2) of 1.68.
For `COc1cccc(-n2ncc3c(N/N=C/c4ccc(S(C)(=O)=O)cc4)ncnc32)c1`, the assay II/I ratio (dexamethasone conc 1) was 0.326, the assay II/I ratio (dexamethasone conc 2) was 0.242 and the normalized assay II/I ratio was 1.18 (inactive). The normalized assay II/I ratio (dexamethasone concentration 2) was 1.17.
`Cn1cc(C2=C(c3cccc(NCC(O)CO)c3)C(=O)NC2=O)c2cc(Cl)ccc21` (stereo unspecified) was tested, and the assay II/I ratio (dexamethasone conc 1) was 0.664, the assay II/I ratio (dexamethasone conc 2) was 0.47 and the normalized assay II/I ratio was 1.93 (inactive). The normalized assay II/I ratio (dexamethasone concentration 2) was 1.97.
For `COc1cccc(-n2ncc3c(N/N=C/c4ccncc4)ncnc32)c1`, the assay II/I ratio (dexamethasone conc 1) was 0.504, the assay II/I ratio (dexamethasone conc 2) was 0.362 and the normalized assay II/I ratio was 1.47 (inactive). The normalized assay II/I ratio (dexamethasone concentration 2) was 1.44.
`Cn1cc(C2=C(c3ccccc3[N+](=O)[O-])C(=O)NC2=O)c2ccccc21` was tested, and the assay II/I ratio (dexamethasone conc 1) was 0.733, the assay II/I ratio (dexamethasone conc 2) was 0.646 and the normalized assay II/I ratio was 2.39. It also gave a normalized assay II/I ratio (dexamethasone concentration 2) of 2.62.
`Cc1[nH]nc2c1N=C(c1ccccc1F)c1cc(C#N)ccc1N2` was tested, and the assay II/I ratio (dexamethasone conc 1) was 0.66, the assay II/I ratio (dexamethasone conc 2) was 0.386 and the normalized assay II/I ratio was 1.87 (inactive). The normalized assay II/I ratio (dexamethasone concentration 2) was 2.07.
For `O=C(NC1NNC2NNC(c3cccnc3)CC21)C1CC1` (stereo unspecified), the assay II/I ratio (dexamethasone conc 1) was 0.597, the assay II/I ratio (dexamethasone conc 2) was 0.43 and the normalized assay II/I ratio was 1.91 (inactive). It also gave a normalized assay II/I ratio (dexamethasone concentration 2) of 1.94.
With `COc1ccc(O)c(C(=O)c2ccc(C(=O)O[C@H]3CCCNC[C@@H]3NC(=O)c3ccncc3)cc2)c1F` the assay II/I ratio (dexamethasone conc 1) was 0.85, the assay II/I ratio (dexamethasone conc 2) was 0.659 and the normalized assay II/I ratio was 0.93 (inactive). The normalized assay II/I ratio (dexamethasone concentration 2) was 0.89.
`O=C(Nc1n[nH]c2nc(-c3ccc(O)cc3)c(Br)cc12)C1CC1` showed an assay II/I ratio (dexamethasone conc 1) of 0.935, an assay II/I ratio (dexamethasone conc 2) of 0.684 and a normalized assay II/I ratio of 2.27. For the same compound, the normalized assay II/I ratio (dexamethasone concentration 2) was 2.53.
